# From patent publication US9051348B2, “Ginsenoside with anti-cancer activity and the preparation method thereof” (Macau University of Science and Technology, priority 2012, dated 2015)
# Like-named read-outs stand apart in the source and are kept apart here.
# Experiments:
# [1] = tested on: lung cancer cells (LLC-1); assay: MTT cytotoxicity assay in LLC-1 cells; type: cell-based, mouse
# Procedure: (§1) The novel compound was dissolved in DMSO at final concentration of 100 mmol/L and stored at −20° C. Cytotoxicity was assessed using the 3-(4,5-dimethylthiazol-2-yl)-2,5-diphenyltetrazolium bromide assay as described previously. Several kinds of cells were seeded on 96-well plates, namely MCF-7, 4000 cells; HepG2, 4000 cells; HeLa, 3000 cells; A549, 4000 cells; LLC-1, 3000 cells; H1299, 3000 cells; CCD19Lu, 4000 cells per well. After overnight pre-incubation, the cells were exposed to different concentrations of the novel compound (0.039-100 μmol/L) or control compounds 20(S)-Rh2 and 20(R)-Rh2 for 3 days. Subsequently, 10 μL of MTT reagents was added to each well and incubated at 37° C. for 4 hours followed by the addition of 100 μL solubilization buffer (10% SDS in 0.01 mol/L HCl) and overnight incubation. A585 nm was determined from each well the next day. The percentage of viable cells was calculated using the following formula: Cell viability (%)=Atreated/Acontrol×100. Data was obtained from three independent experiments.
# [2] = tested on: human normal lung fibroblasts CCD19Lu; assay: MTT cytotoxicity assay in CCD19Lu cells; type: cell-based
# Procedure: as §1
# several tumor cell lines = conditions: literature [2], cited from earlier work
# [3] = tested on: panel of 7 tumor cell lines and human normal lung fibroblasts; conditions: previous studies of the inventors, cited from earlier work
# [4] = MTT cytotoxicity assay in CCD19Lu cells; type: cell-based, human; conditions: human
# Procedure: as §1
# [5] = tested on: other five cancer cell lines (MCF-7, HepG2, HeLa, A549, H1299); type: cell-based
# Procedure: as §1
# LLC-1 tumor = type: in vivo, male C57BL/6J mice; conditions: for suppression on the tumor growth: 21-day treatment, vs vehicle
# Procedure: The LLC-1 cells harvested from in vitro culture were adjusted to a concentration of 1.5×10^7/mL and 0.1 mL cell suspension was injected subcutaneously into the dorsal region of the male C57BL/6J mice. Subsequently, when 70% of mice had developed tumor into a volume (length×width^2×0.52) larger than 50 mm^3, the animals were randomly divided into the vehicle control and several treatment groups. The novel compound powder was dissolved with PEG400:ethanol:distilled water in a ratio of 60%:10%:30% (v/v/v), and orally administrated to mice by gavage feeding at doses of 10, 20, 40 and 80 mg/kg/day for 21 consecutive days. Oral administration of 80 mg/kg/day 20(R)-Rh2, 20(S)-Rh2 and 20(S)-Rg3, and 10 mg/kg/day 5-Fu were designed as control groups. In order to make sure all groups were appropriately blended, all the experimental procedures such as subcutaneous tumor cells injection, treatment and tumor size measurement were performed by three individual persons who were blended for animal group identity.
# [6] = Sub-chronic lethal dose study, 7-day repeated oral dosing; type: in vivo, male C57BL/6J mice; conditions: 160 and 320 mg/kg/day oral, 7-day treatment
# Procedure: 10 male C57BL/6J mice were divided into two treatment groups, i.e. 160 mg/kg/day and 320 mg/kg/day. The novel compound powder was dissolved with PEG400:ethanol:distilled water in a ratio of 60%:10%:30% (v/v/v), and orally administrated to mice by gavage feeding at doses of 160 and 320 mg/kg/day for 7 consecutive days. The health condition of the animals was monitored and their body weights were recorded during this 7 days treatment duration.
# [7] = Acute oral toxicity, OECD Test Guideline 423, 14-day; type: in vivo, C57BL/6J mice
# Procedure: The acute oral toxicity of the novel compound was evaluated in line with the Organization for Economic Cooperation and Development (OECD) Guideline for Testing Chemicals—Acute Oral Toxicity—Acute Toxic Class Method (Test Guideline 423, Adopted on 17 Dec. 2001). Based on the result of Example 4, the Test Procedure with a Starting Dose of 2000 mg/kg (Annex 2d of OECD 423) was selected to evaluate the acute toxicity of the novel compound. In the test, 3 female and 3 male C57BL/6J mice (SPF grade) were fasted overnight and then orally administrated by gavage feeding with single dose of the novel compound solution at 2000 mg/kg.
# [8] = literature [4]; cited from earlier work
# osteoclastgenesis = conditions: literature [2]; cited from earlier work
# [9] = in cell culture; previous studies of the inventors; cited from earlier work
smiles,measurement,setting,value
CC(C)=CCC[C@](C)(O)[C@H]1CC[C@]2(C)[C@@H]1[C@H](O)C[C@@H]1[C@@]3(C)CC[C@H](O[C@@H]4O[C@H](CO)[C@@H](O)[C@H](O)[C@H]4O)C(C)(C)[C@@H]3CC[C@]12C [20(S)-Rh2],IC50,[1],46.5 µM
same,IC50,[2],80.5 µM
same,IC50,"several tumor cell lines; several tumor cell lines, read-out: cytotoxicity, IC50",22 to 50 µM
same,IC50,"[3]; panel of 7 tumor cell lines and human normal lung fibroblasts, read-out: cytotoxicity, IC50",45 to 65 µM
CC(C)(O)C1CC[C@](C)(C2CC[C@]3(C)C2[C@H](O)CC2[C@@]4(C)CC[C@H](O[C@@H]5OC(CO)[C@@H](O)C(O)C5O)C(C)(C)C4CC[C@]23C)O1 (stereo partly drawn) [novel compound],IC50,"[1]; Mus musculus, LLC1, 72 h, read-out: cytotoxic effect, IC50",56 µM
same,IC50 at 3 days,[4],> 100 µM
same,cytotoxic potency (in words),[5],dose-dependent cytotoxic potency
same,suppression on the tumor growth,"LLC-1 tumor; 10 mg/kg/day oral, P>0.05",35.24%
same,suppression on the tumor growth,"LLC-1 tumor; 20 mg/kg/day oral, P>0.05",40.49%
same,suppression on the tumor growth,"LLC-1 tumor; 40 mg/kg/day oral, P<0.05",44.9%
same,suppression on the tumor growth,"LLC-1 tumor; 80 mg/kg/day oral, P<0.01",52.04%
same,adverse impacts on the major organs and body weight,"LLC-1 tumor; mouse, in vivo, po",without observable adverse impacts
same,animal survival,[6],100%
same,body weight,[6],no significant drop of body weight
same,Globally Harmonized Classification System (GHS) class,"[7]; acute oral toxicity, OECD Test Guideline 423",Class 5 or unclassified
same,LD50 at 14 days,"[7]; both sexes, C57BL/6J, mouse, in vivo, 2000 mg/kg, oral, mice, estimated per OECD Test Guideline 423 criteria",> 5000 mg/kg
same,body weight and sign of toxicity,"[7]; single oral dose 2000 mg/kg, 14 days",no significant drop of body weight and sign of toxicity
same,animal death,"[7]; single oral dose 2000 mg/kg, 14 days, both gender",zero animal death
"CC(C)=CCC[C@](C)(O)[C@H]1CC[C@]2(C)[C@@H]1[C@H](O)C[C@@H]1[C@@]3(C)CC[C@H](O[C@@H]4O[C@H](CO)[C@@H](O)[C@H](O)[C@H]4O)C(C)(C)[C@@H]3CC[C@]12C [Rh2, Ginsenoside Rh2]",intestinal absorption (in words),[8],poor intestinal absorption
same,permeability (in words),[8],poor permeability
"CC(C)=CCC[C@@](C)(O)[C@H]1CC[C@]2(C)[C@@H]1[C@H](O)C[C@@H]1[C@@]3(C)CC[C@H](O[C@@H]4O[C@H](CO)[C@@H](O)[C@H](O)[C@H]4O)C(C)(C)[C@@H]3CC[C@]12C [20(R)-Rh2, 20(R)-ginsenoside Rh2]",cytotoxicity (in words),"[1]; LLC-1 cells, MTT, 3 days exposure",no cytotoxicity
same,cytotoxicity (in words),"[2]; CCD19Lu cells, MTT, 3 days exposure",no cytotoxicity
same,cell cytotoxicity (in words),several tumor cell lines,without any cell cytotoxicity
same,osteoclastgenesis inhibition (in words),osteoclastgenesis,selective osteoclastgenesis inhibitor
same,concentration up to which no cytotoxic effect,[3]; in cell culture,> 100 µM
same,solubility (in words),[9],poor solubility
same,intestinal absorption (in words),[8],lower absorption profiles
